Data taken from the supplement of paper PMC10307832.

Tests used:
Test in all cases: relative viability (nuclei count vs DMSO), 5 days (fraction); higher = more cells survive
KN-93 + Trametinib = compound: CN(C/C=C/C1=CC=C(C=C1)Cl)CC2=CC=CC=C2N(CCO)S(=O)(=O)C3=CC=C(C=C3)OC [KN-93] + CC(=O)Nc1cccc(-n2c(=O)n(C3CC3)c(=O)c3c(Nc4ccc(I)cc4F)n(C)c(=O)c(C)c32)c1 [Trametinib] (partner 0.02 µM)
Procedure, shortened: (§1)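 Nuclei were stained with Hoechst during a one-step fixation (final 0.05% Triton X-100, 1% formaldehyde, 1 ug/ml Hoechst) carried out 5 days after dosing, then counted on 4× images. The cells, lung cancer lines in 1536-well plates, had been dosed by pin tool the day after seeding with one drug alone or a fixed anchor-drug dose plus five library-drug doses (not always all listed) in √10 steps. Relative viability is the nuclei count in treated wells divided by that in vehicle wells, and each value is the median of duplicate plates.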

KN-93 + Olaparib = compound: CN(C/C=C/C1=CC=C(C=C1)Cl)CC2=CC=CC=C2N(CCO)S(=O)(=O)C3=CC=C(C=C3)OC [KN-93] + O=C(c1cc(Cc2n[nH]c(=O)c3ccccc23)ccc1F)N1CCN(C(=O)C2CC2)CC1 [Olaparib] (partner 8 µM)
Procedure, shortened: as §1

KN-93 + OSI-027 = compound: CN(C/C=C/C1=CC=C(C=C1)Cl)CC2=CC=CC=C2N(CCO)S(=O)(=O)C3=CC=C(C=C3)OC [KN-93] + COc1cccc2cc(-c3nc([C@H]4CC[C@H](C(=O)O)CC4)n4ncnc(N)c34)[nH]c12 [OSI-027] (partner 0.5 µM)
Procedure, shortened: as §1

KN-93 + Tozasertib = compound: CN(C/C=C/C1=CC=C(C=C1)Cl)CC2=CC=CC=C2N(CCO)S(=O)(=O)C3=CC=C(C=C3)OC [KN-93] + Cc1cc(Nc2cc(N3CCN(C)CC3)nc(Sc3ccc(NC(=O)C4CC4)cc3)n2)n[nH]1 [Tozasertib] (partner 0.1 µM)
Procedure, shortened: as §1

KN-93 + Navitoclax = compound: CN(C/C=C/C1=CC=C(C=C1)Cl)CC2=CC=CC=C2N(CCO)S(=O)(=O)C3=CC=C(C=C3)OC [KN-93] + CC1(C)CCC(c2ccc(Cl)cc2)=C(CN2CCN(c3ccc(C(=O)NS(=O)(=O)c4ccc(N[C@H](CCN5CCOCC5)CSc5ccccc5)c(S(=O)(=O)C(F)(F)F)c4)cc3)CC2)C1 [Navitoclax] (partner 0.5 µM)
Procedure, shortened: as §1

Cell Line | relative viability (KN-93 + Trametinib; first compound 0.08 µM) | relative viability (KN-93 + Trametinib; first compound 0.253 µM) | relative viability (KN-93 + Trametinib; first compound 2.53 µM) | relative viability (KN-93 + Trametinib; first compound 8 µM) | relative viability (KN-93 + Olaparib; first compound 0.08 µM) | relative viability (KN-93 + Olaparib; first compound 0.253 µM) | relative viability (KN-93 + Olaparib; first compound 2.53 µM) | relative viability (KN-93 + Olaparib; first compound 8 µM) | relative viability (KN-93 + OSI-027; first compound 0.08 µM) | relative viability (KN-93 + OSI-027; first compound 0.253 µM) | relative viability (KN-93 + OSI-027; first compound 2.53 µM) | relative viability (KN-93 + OSI-027; first compound 8 µM) | relative viability (KN-93 + Tozasertib; first compound 0.08 µM) | relative viability (KN-93 + Tozasertib; first compound 0.253 µM) | relative viability (KN-93 + Tozasertib; first compound 2.53 µM) | relative viability (KN-93 + Tozasertib; first compound 8 µM) | relative viability (KN-93 + Navitoclax; first compound 0.08 µM) | relative viability (KN-93 + Navitoclax; first compound 0.253 µM) | relative viability (KN-93 + Navitoclax; first compound 2.53 µM) | relative viability (KN-93 + Navitoclax; first compound 8 µM)
LXF-289 | 0.661 | 0.69 | 0.666 | 0.592 | 0.903 | 1.18 | 1.25 | 0.955 | 0.875 | 0.967 | 0.873 | 0.634 | 0.201 | 0.25 | 0.215 | 0.147 | 0.97 | 1.08 | 0.918 | 0.631
NCI-H23 | 0.331 | 0.397 | 0.432 | 0.326 | 0.3 | 0.251 | 0.407 | 0.233 | 0.566 | 0.544 | 0.662 | 0.344 | 0.327 | 0.359 | 0.439 | 0.267 | 0.721 | 0.988 | 0.933 | 0.816
NCI-H322M | 0.478 | 0.575 | 0.488 | 0.442 | 0.766 | 0.817 | 0.706 | 0.689 | 0.535 | 0.577 | 0.539 | 0.411 | 0.505 | 0.502 | 0.524 | 0.489 | 1.19 | 1.09 | 1.2 | 1.11
NCI-H441 | – | 0.422 | 0.401 | 0.177 | – | 0.799 | 0.531 | 0.467 | 0.603 | 0.672 | 0.623 | 0.479 | 0.639 | 0.806 | 0.553 | 0.435 | – | 0.573 | 0.747 | 0.238
NCI-H460 | 0.167 | 0.111 | 0.195 | 0.0953 | 0.286 | 0.468 | 0.586 | 0.305 | 0.863 | 0.825 | 0.603 | 0.223 | 0.397 | 0.104 | 0.381 | 0.153 | 0.39 | 1.29 | – | 0.63
NCI-H520 | 0.591 | 0.783 | 0.682 | 0.641 | 0.312 | 0.312 | 0.282 | 0.272 | 0.287 | 0.289 | 0.279 | 0.205 | 0.455 | 0.447 | 0.459 | 0.382 | – | 1.13 | 1.23 | 0.878
NCI-H596 | 0.708 | 0.847 | 0.836 | 0.586 | 0.737 | 0.507 | 0.658 | 0.642 | 0.769 | 0.726 | 0.755 | 0.252 | 0.783 | 1.02 | 1.06 | 0.747 | 0.996 | 0.891 | 0.966 | 0.575
NCI-H647 | 0.353 | 0.499 | 0.468 | 0.466 | 0.648 | 0.766 | 0.881 | 0.421 | 0.695 | 0.643 | 0.856 | 0.533 | 0.31 | 0.299 | 0.0549 | 0.196 | 0.976 | 1.41 | 1.39 | 0.715
NCI-H727 | 0.32 | – | 0.384 | 0.409 | 0.69 | – | 0.744 | 0.738 | 0.644 | 0.512 | 0.486 | 0.337 | 0.689 | 0.658 | 0.465 | 0.447 | 0.464 | 0.4 | 0.285 | 0.17
NCI-H838 | 0.563 | 0.482 | 0.522 | 0.509 | 0.939 | 0.709 | 1.18 | 0.613 | 0.443 | 0.328 | 0.445 | 0.41 | 0.256 | 0.257 | 0.252 | 0.235 | 1.04 | 1.06 | 1.31 | 0.946
NCI-H1355 | 0.436 | 0.324 | 0.375 | 0.343 | 0.628 | 0.67 | 0.766 | 0.477 | 0.405 | 0.295 | 0.41 | 0.246 | 0.51 | 0.451 | 0.481 | 0.31 | 0.874 | 0.722 | 0.916 | 0.74
NCI-H1395 | 1.03 | 1.19 | 1.07 | 0.775 | 0.452 | 0.48 | 0.424 | 0.419 | 0.702 | 0.666 | 0.707 | 0.469 | 0.733 | 0.671 | 0.8 | 0.476 | 1.11 | 1.22 | 1.34 | 0.566
NCI-H1437 | 0.444 | 0.471 | 0.454 | 0.377 | 0.626 | 0.683 | 0.564 | 0.456 | 0.885 | 0.984 | 0.852 | 0.651 | 0.37 | 0.433 | 0.383 | 0.264 | 0.92 | 1.23 | 1.07 | 0.476
NCI-H1650 | 0.611 | 0.508 | 0.693 | 0.412 | 0.702 | 0.428 | 0.854 | 0.608 | 0.574 | 0.596 | 0.496 | 0.465 | 0.39 | 0.339 | 0.382 | 0.309 | 1.24 | 1.2 | 1.44 | 0.951
NCI-H1651 | 0.79 | 0.886 | 0.689 | 0.683 | 0.203 | 0.178 | 0.199 | 0.179 | 0.588 | 0.73 | 0.749 | 0.423 | 0.647 | 0.627 | 0.906 | 0.509 | 0.997 | 1.08 | 1.09 | 0.482
